Results reported in patent US10688143B2, “Composition containing extract or fraction of genus Justicia plant” (priority 2014, dated 2020).
Where two headings read alike, the source gives them in different places.

Key:
[1] = tested on: Balb/c mouse asthma models; assay: Inhibition of asthma in Balb/c mouse asthma models (ovalbumin): serum IgE, BALF IL-4, IL-5, inflammatory cells; assay type: in vivo; settings: extracts 200 mg/kg oral daily for 10 days, dexamethasone 3 mg/kg intraperitoneal
Description: 5-week-old Balb/c mice were purchased and acclimated for 1 week. On 0 and 14 days of 1 week of acclimation, the mice were systematically sensitized by intraperitoneally administering 0.1% ovalbumin (OVA: 1 mg/mL, Al(OH)3: 20 mg/mL) in an amount of 100 μl/mouse. […] As a positive control, 3 mg/kg of dexamethasone was administered intraperitoneally. After one hour, 0.2% ovalbumin solution was sprayed and inhaled into the mice for 1 hour by use of a nebulizer (PARI Boy SX, Germany GmbH). 5 hours after final sensitization (30 days), the mice were biopsied, and whole blood was sampled from the mice and centrifuged at 12000 rpm for 10 minutes to separate serum. In addition, the lung tissue was isolated from each mouse and flushed with 1 mL of phosphate buffered saline through tracheostomy to collect bronchoalveolar lavage fluid (BALF). The collected bronchoalveolar lavage fluid was centrifuged at 3000 rpm for 10 minutes, and the supernatant was used to measure physiologically active substances (IL-4, and IL-5), and the pellets were used to measure the number of inflammatory cells.
The IgE concentration in the separated serum was measured using IgE enzyme-linked immonosorbent assay (ELISA, Komabiotech Inc.), and the physiologically active substances (interleukin-4 (IL-4) and interleukin-5 (IL-5)) in the isolated bronchoalveolar lavage fluid were measured using an enzyme-linked immonosorbent assay (ELISA, IL-4: Enzo # ADI-900-043, IL-5: R&D system # M5000) corresponding to each substance. The results of the measurement are shown in Table 14 below, and the ability of each extract to inhibit IgE secretion was calculated in the same manner as equation 4 shown in Example 3.
In addition, the bronchoalveolar lavage fluid pellets were re-dissolved in 0.5 mL of phosphate buffered saline, and 0.1 mL of the solution was added to each well of a 96-well plate and centrifuged at 800 rpm for 5 minutes to attach the cells to the bottom (3 wells per sample). Then, each sample was stained with Diff Quik staining solution (Sysmex), and photographed with a microscope at 2-6 random sites. About 200 cells per sample were counted to calculate the percentage (%) of inflammatory cells of each group. The total number of inflammatory cells was measured with a microscope using a hematocytometer, and the number of basophils was calculated using the percentage (%) of each inflammatory cells, and is shown in FIG. 1. Statistical processing was performed using an SPSS program, and a Levene test was performed for a test for equal variance, and significance was tested by one-way analysis (ANOVA).

[2] = tested on: RBL-2H3 rat basophilic cells; assay: Degranulation inhibition (β-hexosaminidase secretion) in RBL-2H3 basophils induced with PMA/A23187; assay type: cell-based
Description: (§1) MC/9 mouse mast cells were purchased from the American Tissue Cell Culture (ATCC # CRL-8306), and RBL-2H3 rat basophilic cells were purchased from the Korean Cell Link Bank (KCLB #22256). MC/9 mast cells and RBL-2H3 basophils were diluted at concentrations of 2×10^6 cells/mL and 5×10^5 cells/mL, respectively, and 400 μl of each of the dilutions was dispensed into each well of 24-well plates. Each well was pretreated with 10 μg/mL or 20 μg/mL of each of the extracts and fractions (prepared in Preparation Examples 1 and 2 and shown in Tables 1 to 5 above) for 30 minutes, and then degranulation of the cells was induced with 200 nM PMA/10 mM A23187 for 1 hour. […] The absorbance at 405 nm was measured, and β-hexosaminidase secretion (%) was calculated using the following equation 2: β-hexosaminidase secretion (%)={absorbance of medium/(absorbance of cell lysate+absorbance of medium)}×100 Equation 2
(§2) Based on β-hexosaminidase secretion (%) obtained using equation 2 above, the degranulation inhibitory ability of each of the Justicia procumbens L. extracts was calculated using the following equation 3 (β-heXo: β-hexosaminidase): Degranulation inhibitory ability (%)={(β-hexo secretion % of test group−β-hexo secretion % of normal group)/(β-hexo secretion % of control group−β-hexo secretion % of normal group)}×100 Equation 3

[3] = tested on: MC/9 mouse mast cells; assay: Degranulation inhibition (β-hexosaminidase secretion) in MC/9 mast cells induced with PMA/A23187; assay type: cell-based
Description: as §1, §2

[4] = tested on: Balb/c mouse rhinitis models; assay: Inhibition of IgE secretion in Balb/c mouse rhinitis models (ovalbumin); assay type: in vivo; settings: extract 200 mg/kg oral daily for 1 week, dexamethasone 3 mg/kg intraperitoneal
Description: Specifically, 5-week-old Balb/c mice were purchased and acclimated for 1 week. On 0, 7 and 14 days of one week of acclimation, the mice were systematically sensitized by intraperitoneally injecting 0.1% ovalbumin (OVA: 1 mg/mL, Al(OH)3: 20 mg/ml) in an amount of 100 μl/mouse. […] As a positive control, 3 mg/kg of dexamethasone was intraperitoneally administered. After 1 hour, 0.4% ovalbumin solution was dropped into the nasal cavity. In the afternoon, 0.4% ovalbumin solution was dropped once more into the nasal cavity. […] The inhibition (%) of IgE secretion was calculated using the following equation 4: Inhibition (%) of secretion=100−{(concentration in test group−concentration in normal group)/(concentration in ovalbumin-induced group−concentration in normal group)}×100 Equation 4

[5] = tested on: U266B1 cells; assay: Inhibition of IgE antibody secretion in U266B1 cells (IgE ELISA); assay type: cell-based
Description: The U266B1 cells used were purchased from the American Tissue Cell Culture (ATCC # TIB-196). Specifically, U266B1 cells were diluted in RPMI medium containing 15% fetal bovine serum (FBS) and antibiotics (100 U/mL of penicillin and 100 μg/mL of streptomycin) at a concentration of 2×10^5 cells/mL, and then the dilution was dispensed in a 24-well plate at a concentration of 400 μl/well and in a 96-well plate at a concentration of 100 μl/well, and incubated in a 5% CO2 incubator at 37° C. for 72 hours.
The U266B1 cells were treated with 5 mg/mL of each of the Justicia procumbens L. extracts and fractions (prepared in Preparation Examples 1 and 2 and shown in Tables 1 to 5). The medium in the 24-well plate was used to measure IgE antibody secretion, and the 96-well plate was used to measure cytotoxicity.
For measurement of IgE antibody secretion, the medium in the 24-well plate was collected and centrifuged at 125×g for 5 minutes to remove debris. 100 g of the medium was diluted 10-fold, and then the degree of IgE secretion was measured using IgE enzyme-linked immonosorbent assay (ELISA, Komabiotech Inc).

SMILES: C[C@@H]1C[C@H]2[C@@H]3CCC4=CC(=O)C=C[C@]4(C)[C@@]3(F)[C@@H](O)C[C@]2(C)[C@@]1(O)C(=O)CO [Dexamethasone]
- Bronchoalveolar lavage fluid IL-4 (inhibition of IgE secretion, (%)), Mean ± SD [1]: (72.7 ± 3.8) %
- Bronchoalveolar lavage fluid IL-4 (pg/mL), Mean ± SD [1]: 56.0 ± 2.1 # pg/mL
- Bronchoalveolar lavage fluid IL-5 (inhibition of IgE secretion, (%)), Mean ± SD [1]: (98.7 ± 9.2) %
- Bronchoalveolar lavage fluid IL-5 (pg/mL), Mean ± SD [1]: 4.8 ± 3.2 # pg/mL
- Serum IgE concentration (ng/mL), Mean ± SD [1]: 85.8 ± 4.9 # ng/mL
- Serum IgE (inhibition of IgE secretion, (%)), Mean ± SD ([1]; equation 4): (25.0 ± 5.8) %
- inhibition at 10 µg/mL ([2]; RBL-2H3, 10 μg/mL, Table 11, read-out: Degranulation inhibition (%) (n = 3, Mean ± SE)): 14 ± 3%
- inhibition at 20 µg/mL ([2]; RBL-2H3, 20 μg/mL, Table 9, read-out: Inhibition (%) of degranulation (n = 3, Mean ± SE)): 18 ± 1%
- Degranulation inhibition (%) (n = 3, Mean ± SE) ([3]; MC/9, 10 μg/mL, Table 11): 35 ± 0.2%
- Inhibition (%) of degranulation (n = 3, Mean ± SE) ([3]; MC/9, 20 μg/mL, Table 9): 64 ± 0.2%
- Serum IgE concentration (ng/mL, Mean ± SE) [4]: 32.2 ± 4.4 ng/mL
- Inhibition of IgE secretion (%, Mean ± SE) ([4]; equation 4): 67.3 ± 6.3%
- inhibition at 5 µg/mL ([5]; U266B1, 5 μg/mL, organic solvent extracts and fractions, Table 8, read-out: IgE secretion inhibition (%) (n = 3, Mean ± SE)): 4 ± 3.4%
- inhibition at 5 µg/mL ([5]; U266B1, concentration of test group 5 μg/mL, Table 6, read-out: IgE secretion inhibition (%) (n = 4, Mean ± SE)): 8 ± 15%
